Assay results as given in PubChem BioAssay (NCI).
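Tested at 5 concentrations; 48 h exposure; 96-well plates; endpoints linearly interpolated, else capped at highest concentration. GI50: concentration for 50% inhibition of growth. TGI denotes the concentration required for complete inhibition of growth.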 Where a SMILES comes first, the peptide text is derived from it.

Key:
Assay in all cases: NCI tumour cell line growth inhibition, 48 h
HT29 colon = test system: HT29 colon
K-562 leukemia = test system: K-562 leukemia
LOX IMVI melanoma = test system: LOX IMVI melanoma
NCI-H460 lung = test system: NCI-H460 lung
OVCAR-4 ovarian = test system: OVCAR-4 ovarian
OVCAR-8 ovarian = test system: OVCAR-8 ovarian
SNB-19 CNS = test system: SNB-19 CNS
SNB-75 CNS = test system: SNB-75 CNS
U251 CNS = test system: U251 CNS
UO-31 renal = test system: UO-31 renal

## COc1cc(-c2n/c(=C\c3c(O)[nH]c4cc(Cl)ccc34)cc3c2=Nc2ccccc2-3)cc(OC)c1OC
HT29 colon
  GI50: 2.67 µM
  TGI: 7.05 µM
K-562 leukemia
  GI50: 3.57 µM
  TGI: 48.6 µM
LOX IMVI melanoma
  GI50: 2.76 µM
  TGI: 16 µM
NCI-H460 lung
  GI50: 4.56 µM
  TGI: 81.7 µM
OVCAR-4 ovarian
  GI50: 2.59 µM
  TGI: 6.36 µM
OVCAR-8 ovarian
  GI50: 4.6 µM
  TGI: 29.2 µM
SNB-19 CNS
  GI50: 3.52 µM
  TGI: 15.5 µM
SNB-75 CNS
  GI50: 5.05 µM
  TGI: 25.1 µM
U251 CNS
  GI50: 1.71 µM
  TGI: 3.36 µM
UO-31 renal
  GI50: 18.3 µM
  TGI: > 100 µM

## COc1ccc(/C=C2\Sc3nnc(CNc4ccc(Cl)cc4)n3N=C2c2cc(F)c(Cl)cc2Cl)cc1OC
HT29 colon
  TGI: > 100 µM
K-562 leukemia
  TGI: > 100 µM
LOX IMVI melanoma
  TGI: > 100 µM
NCI-H460 lung
  TGI: > 100 µM
OVCAR-4 ovarian
  TGI: > 100 µM
OVCAR-8 ovarian
  TGI: > 100 µM
U251 CNS
  TGI: > 100 µM
UO-31 renal
  TGI: > 100 µM

## CCOc1ccc(N=NS(=O)(=O)O)cc1
HT29 colon
  TGI: > 100 µM
K-562 leukemia
  TGI: > 100 µM
LOX IMVI melanoma
  TGI: > 100 µM
NCI-H460 lung
  TGI: > 100 µM
OVCAR-4 ovarian
  TGI: > 100 µM
OVCAR-8 ovarian
  TGI: > 100 µM
SNB-19 CNS
  TGI: > 100 µM
SNB-75 CNS
  TGI: > 100 µM
U251 CNS
  TGI: > 100 µM
UO-31 renal
  TGI: > 100 µM

## CC(C)(CCCCC(C)(C)C1NC(=O)N1)C1NC(=O)N1
HT29 colon
  TGI: > 10 µM
K-562 leukemia
  TGI: > 10 µM
LOX IMVI melanoma
  TGI: > 10 µM
NCI-H460 lung
  TGI: > 10 µM
OVCAR-4 ovarian
  TGI: > 10 µM
OVCAR-8 ovarian
  TGI: > 10 µM
SNB-19 CNS
  TGI: > 10 µM
SNB-75 CNS
  TGI: > 10 µM
U251 CNS
  TGI: > 10 µM
UO-31 renal
  TGI: > 10 µM

## CC(C)CC(NC(=O)C(Cc1ccccc1)NC(=O)C(Cc1c[nH]c2ccccc12)NC(=O)CNC(=O)C(N)Cc1ccc(O)cc1)C(=O)O (centres undefined) (H-YGWFL-OH; configuration not given here)
HT29 colon
  TGI: > 100 µM
NCI-H460 lung
  TGI: > 100 µM
OVCAR-4 ovarian
  TGI: > 100 µM
OVCAR-8 ovarian
  TGI: > 100 µM
SNB-19 CNS
  TGI: > 100 µM
SNB-75 CNS
  TGI: 93.9 µM
U251 CNS
  TGI: > 100 µM
UO-31 renal
  TGI: > 100 µM

## CC(=O)ON1C(=O)c2cccc3cccc(c23)C1=O
HT29 colon
  TGI: > 100 µM
K-562 leukemia
  TGI: > 100 µM
LOX IMVI melanoma
  TGI: 57.3 µM
NCI-H460 lung
  TGI: 41.7 µM
OVCAR-4 ovarian
  TGI: 40.7 µM
OVCAR-8 ovarian
  TGI: > 100 µM
SNB-19 CNS
  TGI: > 100 µM
U251 CNS
  TGI: > 100 µM
UO-31 renal
  TGI: > 100 µM

## O=c1c2cc(I)ccc2nc(SCc2n[nH]c(=S)o2)n1Cc1ccccc1
HT29 colon
  TGI: 66.2 µM
K-562 leukemia
  TGI: 70.8 µM
LOX IMVI melanoma
  TGI: 29.1 µM
NCI-H460 lung
  TGI: 39.5 µM
OVCAR-4 ovarian
  TGI: 44.4 µM
OVCAR-8 ovarian
  TGI: 40.4 µM
SNB-19 CNS
  TGI: 55.5 µM
SNB-75 CNS
  TGI: 23.1 µM
U251 CNS
  TGI: 31.4 µM
UO-31 renal
  TGI: 3.43 µM

## COC1=CC(=O)c2c(c(COP(=O)(N(C)CCBr)N(C)CCBr)cn2C)C1=O
HT29 colon
  TGI: 0.222 µM
LOX IMVI melanoma
  TGI: 3.56 µM
NCI-H460 lung
  TGI: 0.983 µM
OVCAR-4 ovarian
  TGI: 3 µM
OVCAR-8 ovarian
  TGI: 0.314 µM
SNB-19 CNS
  TGI: 3.76 µM
SNB-75 CNS
  TGI: 0.442 µM
U251 CNS
  TGI: 0.448 µM
UO-31 renal
  TGI: 0.294 µM

## CC(C)(C)c1cc(OCc2nnc3sc(=S)[nH]n23)c(Cl)cc1OCc1nnc2sc(=S)[nH]n12
HT29 colon
  TGI: > 100 µM
K-562 leukemia
  TGI: > 100 µM
LOX IMVI melanoma
  TGI: 34.2 µM
NCI-H460 lung
  TGI: 81.8 µM
OVCAR-4 ovarian
  TGI: 80.6 µM
OVCAR-8 ovarian
  TGI: > 100 µM
SNB-19 CNS
  TGI: > 100 µM
SNB-75 CNS
  TGI: 92 µM
U251 CNS
  TGI: 65.2 µM
UO-31 renal
  TGI: 82.4 µM

## Cc1ccc(C(O)(c2ccc(C)cc2)c2ccccn2)cc1
HT29 colon
  TGI: > 100 µM
K-562 leukemia
  TGI: > 100 µM
LOX IMVI melanoma
  TGI: > 100 µM
NCI-H460 lung
  TGI: > 100 µM
OVCAR-4 ovarian
  TGI: > 100 µM
OVCAR-8 ovarian
  TGI: > 100 µM
SNB-19 CNS
  TGI: > 100 µM
SNB-75 CNS
  TGI: > 100 µM
U251 CNS
  TGI: > 100 µM
UO-31 renal
  TGI: > 100 µM
